Data on 1 substance can be found in patent publication US6649753B2, “Stable salts of S-adenosyl-L-methionine (SAMe) and the process for their preparation” (Orchid Chemicals & Pharmaceuticals Ltd., priority 2001, dated 2003).

This data set in a line: Accelerated stability of SAMe salts (ICH guidelines, HPLC). To be noted: 40-45° C. with 70-75% Relative Humidity. It is filed as physicochemical. How it is done:
Assessment of stability of the above SAMe salts has been done as per the ICH guidelines at 40-45° C. with 70-75% Relative Humidity and an improved HPLC method has been employed which resolves all the impurities formed on degrading SAMe (Table I). This method of HPLC analysis is the best method known so far to study stability of SAMe and has been validated as per the ICH guidelines. The details of the HPLC method followed and the accelerated stability report are as under:
Column=YMC-ODS-A, 4.6 mm×25 cm, C-18, 5 micron
Buffer=A mixture of 0.02 M citric acid & 0.01 M sodium dihydrogen orthophosphate
Mobile phase=using acetonitrile water with citric acid buffer
Detector=UV at 254 nm wavelength
Flow rate=1.5 ml per min.
Column temperature=25° C.
The percentage of SAMe after storage at the specified temperature was determined using the content of SAMe after storage and the content of SAMe before storage, i.e., initial content of SAMe in the corresponding salt using the following equation: [formula]

As for “SAMe disulfate catechol-3,5-disulfonate or its sodium salt [Salt II]”, the “SAMe Residual Ratio” value by setting is: (accelerated storage period 30 days) 97.5%; (accelerated storage period 60 days) 95.2%; (accelerated storage period 90 days) 94.5%.
